Data taken from PubChem BioAssay (NCI).
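96-well plates; 48 h exposure; 5 concentrations. Endpoints by linear interpolation between flanking doses. Not reached: highest tested concentration assigned. TGI marks complete inhibition of growth.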

Tests used:
Assay in all cases: growth of human tumour cells (NCI), 48 h
NCI-H226 lung = test system: NCI-H226 lung
HL-60(TB) leukemia = test system: HL-60(TB) leukemia
RXF 393 renal = test system: RXF 393 renal
SF-268 CNS = test system: SF-268 CNS
COLO 205 colon = test system: COLO 205 colon
NCI-H522 lung = test system: NCI-H522 lung
MCF7 breast = test system: MCF7 breast
HT29 colon = test system: HT29 colon
MDA-MB-231 breast = test system: MDA-MB-231 breast
SK-OV-3 ovarian = test system: SK-OV-3 ovarian
UACC-62 melanoma = test system: UACC-62 melanoma
RPMI-8226 leukemia = test system: RPMI-8226 leukemia
M14 melanoma = test system: M14 melanoma
MDA-N = test system: MDA-N
UACC-257 melanoma = test system: UACC-257 melanoma
SNB-75 CNS = test system: SNB-75 CNS
PC-3 prostate = test system: PC-3 prostate
EKVX NSCLC = test system: EKVX NSCLC
UO-31 renal = test system: UO-31 renal
HS 578T breast = test system: HS 578T breast
OVCAR-8 ovarian = test system: OVCAR-8 ovarian
MDA-MB-435 = test system: MDA-MB-435
NCI/ADR-RES ovarian = test system: NCI/ADR-RES ovarian
NCI-H23 lung = test system: NCI-H23 lung
HCT-116 colon = test system: HCT-116 colon
HOP-92 NSCLC = test system: HOP-92 NSCLC
A549 NSCLC = test system: A549 NSCLC
IGROV1 ovarian = test system: IGROV1 ovarian
KM12 colon = test system: KM12 colon
K-562 leukemia = test system: K-562 leukemia
CAKI-1 renal = test system: CAKI-1 renal
U251 CNS = test system: U251 CNS
SR leukemia = test system: SR leukemia
BT-549 breast = test system: BT-549 breast
OVCAR-4 ovarian = test system: OVCAR-4 ovarian
CCRF-CEM leukemia = test system: CCRF-CEM leukemia
OVCAR-5 ovarian = test system: OVCAR-5 ovarian
SW-620 colon = test system: SW-620 colon
ACHN renal = test system: ACHN renal
DU-145 prostate = test system: DU-145 prostate
SK-MEL-2 melanoma = test system: SK-MEL-2 melanoma
786-0 renal = test system: 786-0 renal
HCC-2998 colon = test system: HCC-2998 colon
NCI-H460 lung = test system: NCI-H460 lung
HCT-15 colon = test system: HCT-15 colon
HOP-62 NSCLC = test system: HOP-62 NSCLC
SK-MEL-28 melanoma = test system: SK-MEL-28 melanoma
SN12C renal = test system: SN12C renal
TK-10 renal = test system: TK-10 renal
SK-MEL-5 melanoma = test system: SK-MEL-5 melanoma
OVCAR-3 ovarian = test system: OVCAR-3 ovarian
LOX IMVI melanoma = test system: LOX IMVI melanoma
SF-295 CNS = test system: SF-295 CNS
A498 renal = test system: A498 renal
T-47D breast = test system: T-47D breast
SNB-19 CNS = test system: SNB-19 CNS
MOLT-4 leukemia = test system: MOLT-4 leukemia
SF-539 CNS = test system: SF-539 CNS
MALME-3M melanoma = test system: MALME-3M melanoma

Structure (SMILES): CCOC(=O)c1csc(-c2cn(C)c3c2C(=O)C(OC)=CC3=O)n1
- TGI (NCI-H226 lung): > 100 µM
- TGI (HL-60(TB) leukemia): > 100 µM
- TGI (RXF 393 renal): 71.8 µM
- TGI (SF-268 CNS): > 100 µM
- TGI (COLO 205 colon): > 89.6 µM
- TGI (NCI-H522 lung): > 100 µM
- TGI (MCF7 breast): 69.8 µM
- TGI (HT29 colon): > 100 µM
- TGI (MDA-MB-231 breast): 57.8 µM
- TGI (SK-OV-3 ovarian): > 100 µM
- TGI (UACC-62 melanoma): > 59 µM
- TGI (RPMI-8226 leukemia): > 80.1 µM
- TGI (M14 melanoma): 63.3 µM
- TGI (MDA-N): > 50.1 µM
- TGI (UACC-257 melanoma): > 78.9 µM
- TGI (SNB-75 CNS): > 83.4 µM
- TGI (PC-3 prostate): > 100 µM
- TGI (EKVX NSCLC): > 100 µM
- TGI (UO-31 renal): > 100 µM
- TGI (HS 578T breast): > 58.8 µM
- TGI (OVCAR-8 ovarian): > 100 µM
- TGI (MDA-MB-435): 11.1 µM
- TGI (NCI/ADR-RES ovarian): > 100 µM
- TGI (NCI-H23 lung): > 56.7 µM
- TGI (HCT-116 colon): > 100 µM
- TGI (HOP-92 NSCLC): > 100 µM
- TGI (A549 NSCLC): 97.1 µM
- TGI (IGROV1 ovarian): > 100 µM
- TGI (KM12 colon): > 71.8 µM
- TGI (K-562 leukemia): > 100 µM
- TGI (CAKI-1 renal): > 100 µM
- TGI (U251 CNS): > 100 µM
- TGI (SR leukemia): > 100 µM
- TGI (BT-549 breast): > 100 µM
- TGI (OVCAR-4 ovarian): > 100 µM
- TGI (CCRF-CEM leukemia): > 100 µM
- TGI (OVCAR-5 ovarian): > 100 µM
- TGI (SW-620 colon): > 100 µM
- TGI (ACHN renal): > 100 µM
- TGI (DU-145 prostate): 91.3 µM
- TGI (SK-MEL-2 melanoma): > 78 µM
- TGI (786-0 renal): > 100 µM
- TGI (HCC-2998 colon): > 100 µM
- TGI (NCI-H460 lung): > 41.6 µM
- TGI (HCT-15 colon): > 100 µM
- TGI (HOP-62 NSCLC): 74 µM
- TGI (SK-MEL-28 melanoma): > 100 µM
- TGI (SN12C renal): > 100 µM
- TGI (TK-10 renal): > 100 µM
- TGI (SK-MEL-5 melanoma): 12.7 µM
- TGI (OVCAR-3 ovarian): > 31.9 µM
- TGI (LOX IMVI melanoma): > 100 µM
- TGI (SF-295 CNS): 96.9 µM
- TGI (A498 renal): 73.1 µM
- TGI (T-47D breast): > 100 µM
- TGI (SNB-19 CNS): > 100 µM
- TGI (MOLT-4 leukemia): > 100 µM
- TGI (SF-539 CNS): > 82.9 µM

Structure (SMILES): O=C(Nc1cc2cc([N+](=O)[O-])ccc2oc1=O)c1cccs1
- TGI (NCI-H226 lung): > 100 µM
- TGI (HL-60(TB) leukemia): 44.5 µM
- TGI (RXF 393 renal): 34.4 µM
- TGI (SF-268 CNS): > 100 µM
- TGI (COLO 205 colon): 85.2 µM
- TGI (NCI-H522 lung): 84.7 µM
- TGI (MCF7 breast): 85.2 µM
- TGI (HT29 colon): > 100 µM
- TGI (MDA-MB-231 breast): > 100 µM
- TGI (RPMI-8226 leukemia): > 100 µM
- TGI (M14 melanoma): > 100 µM
- TGI (MDA-N): > 100 µM
- TGI (UACC-257 melanoma): > 100 µM
- TGI (SNB-75 CNS): 16.5 µM
- TGI (PC-3 prostate): > 100 µM
- TGI (EKVX NSCLC): > 100 µM
- TGI (UO-31 renal): > 100 µM
- TGI (HS 578T breast): > 100 µM
- TGI (OVCAR-8 ovarian): > 100 µM
- TGI (MDA-MB-435): 70.8 µM
- TGI (NCI/ADR-RES ovarian): > 100 µM
- TGI (HCT-116 colon): > 100 µM
- TGI (HOP-92 NSCLC): > 100 µM
- TGI (A549 NSCLC): > 100 µM
- TGI (IGROV1 ovarian): > 100 µM
- TGI (KM12 colon): 72.9 µM
- TGI (K-562 leukemia): > 100 µM
- TGI (CAKI-1 renal): > 100 µM
- TGI (MALME-3M melanoma): > 100 µM
- TGI (U251 CNS): > 100 µM
- TGI (SR leukemia): > 100 µM
- TGI (BT-549 breast): > 100 µM
- TGI (OVCAR-4 ovarian): > 100 µM
- TGI (CCRF-CEM leukemia): 78.3 µM
- TGI (OVCAR-5 ovarian): > 100 µM
- TGI (SW-620 colon): > 100 µM
- TGI (ACHN renal): > 100 µM
- TGI (DU-145 prostate): > 100 µM
- TGI (SK-MEL-2 melanoma): > 100 µM
- TGI (786-0 renal): > 100 µM
- TGI (HCC-2998 colon): > 100 µM
- TGI (NCI-H460 lung): > 100 µM
- TGI (HOP-62 NSCLC): > 100 µM
- TGI (SK-MEL-28 melanoma): > 100 µM
- TGI (SN12C renal): > 100 µM
- TGI (TK-10 renal): > 100 µM
- TGI (SK-MEL-5 melanoma): 45 µM
- TGI (OVCAR-3 ovarian): > 100 µM
- TGI (LOX IMVI melanoma): > 100 µM
- TGI (SF-295 CNS): > 100 µM
- TGI (A498 renal): > 100 µM
- TGI (T-47D breast): > 100 µM
- TGI (SNB-19 CNS): > 100 µM
- TGI (MOLT-4 leukemia): > 100 µM
- TGI (SF-539 CNS): 69.9 µM
